Measurements published in patent US8969333B2, “Therapeutic compositions and methods” (The Penn State Research Foundation, priority 2010, dated 2015).

Columns and labels:
[1] = system: U2OS human osteosarcoma cells; assay: MTT assay of U2OS cancer cell growth inhibition; type: cell-based
Method: MIT assays are conducted to evaluate activity to inhibit cancer cell growth. U2OS human osteosarcoma cells were treated with individual compounds at different concentrations for 72 hr in 24-well plates. MIT reagent was added to a final concentration of 0.5 mg/ml and further incubated for 4 hr. The yellow-colored MTT was reduced to insoluble purple-colored Formazan in living cells. Culture medium was removed and DMSO was added to dissolve Formazan into solution. The absorbance of the solution was then measured at 570 nm using a Thermo BioMate™ 3 spectrophotometer. Results are shown in FIG. 1 and average and standard deviations are shown (n>=3).
Cells were treated with individual compounds at different concentrations for 72 hr in 24-well plates. MTT reagent was added to a final concentration of 0.5 mg/ml and further incubated for 4 hr. The yellow-colored MTT was reduced to insoluble purple-colored Formazan in living cells. Culture medium was removed and DMSO was added to dissolve Formazan into solution. The absorbance of the solution was then measured at 570 nm using a Thermo BioMate™ 3 spectrophotometer.

p53 and its target genes = assay: RT-qPCR and Western blot of p53 and its target genes in U2OS cells; type: cell-based, human
Method: Western blot and immunostaining was performed essentially as described in Li, P. et al., Oncogene 29 (21), 3153-3162 (2010). Antibodies used in Western blot were anti-p53 (Sigma), anti-PAD4, anti-p21 (Sigma), anti-PUMA (Calbiochem), anti-SESN2 (Abeam), anti-p70S6K (Cell Signaling), anti-p70S6K-pT389 (Cell Signaling), anti-LC3 (Cell Signaling) and anti-β-actin (Sigma) at appropriate dilutions. Anti-LC3B antibody (Cell Signaling) was used for immunostaining. DNA was stained by the DNA dye Hoechst.
RNA was extracted using RNeasy Mini Kit (Qiagen) per manufacturer's instructions. 1 μg RNA was reverse transcribed into cDNA using qScript cDNA SuperMix (Quanta Biosciences) per manufacturer's instructions. Quantitative PCR was performed using SYBR Green SuperMix (Quanta Biosciences) in StepOnePlus Real-Time PCR System (Applied Biosystems). FIG. 10 is a graph showing p53 and its target gene expression induced in S180 cells by YW3-56 in a concentration dependent manner.
U2OS and S-180 cells were cultured in Dulbecco modified Eagle medium (DMEM) supplemented with 10% fetal bovine serum and 1% penicillin-streptomycin in a 5% CO2 incubator. U2OS p53-shRNA and U2OS Ctrl-shRNA cells were generated as described in Li, P. et al., Regulation of p53 target gene expression by peptidylarginine deiminase 4. Mol Cell Bial 28 (15), 4745-4758 (2008). Concentrations and duration of YW3-56 treatment were performed as specified in the figures and text. For starvation assay, U2OS cells were first cultured in serum-free DMEM for 16 hr, 10% fetal bovine serum and different concentrations of YW3-56 was then added back and cells were further incubated for 8 hr before further analyses. SESN2 siRNA (Santa Cruz) and GFP siRNA (Dharmacon Inc.) were transfected into U2OS cells using the XtremeGene siRNA transfection reagents (Roche Inc.). Cells were incubated in the presence of the siRNA for 48 hr before adding YW3-56 and further incubated for 8 hr before analyses.
The relative abundance of each gene is compared with β-actin as a reference. Increase in several p53 target genes, such as p21, GADD45, PUMA, OKL38, DRAM, and Sestrin2, is detected after YW3-88 treatment at 12 μM concentration. […] Increase in p21 and PUMA proteins is detected.

S180 tumor = assay: Sarcoma S180 cell-derived mouse tumor model; type: in vivo; conditions: YW3-56 10 mg/kg i.p. daily for 1 week
Description: A well-established sarcoma S180 cell-derived mouse tumor model is used in this example to determine the effects of PAD4 inhibitors of the present invention on tumor growth in mice.
S180 ascites tumor cells were used to form solid tumors after subcutaneous injection essentially as described in Wang, W. et al., Mol. Biosyst., 2011, 7:766-772. In brief, for initiation of subcutaneous tumors, the cells were obtained as an ascitic form from the tumor-bearing mice, which were serially transplanted once per week. Subcutaneous tumors were implanted by injecting 0.2 ml of 0.9% saline containing 1×10^7 viable tumor cells under the skin on the right armpit. 24 hr after implantation, male ICR mice were randomly divided into experimental groups. The mice in the positive control group were given a daily i.p injection of 2 mg/kg of doxorubicin in 0.2 ml of 0.9% saline for 7 consecutive days. The mice in the negative control group were given a daily i.p injection of 0.2 ml of 0.9% saline for 7 consecutive days. The mice in the treatment groups were given a daily i.p injection of YW3-56 (10 mg/kg), SAHA (5 mg/kg), or a combination of YW3-56 (5 mg/kg) and SAHA (2.5 mg/kg) for 7 consecutive days. The weights of the mice were recorded every day. 24 hr after the last administration, all mice were weighed, euthanized and immediately dissected to obtain and weigh the tumor and vital organs.

[2] = system: Sesn2 promoter (+733 position); assay: ChIP analysis at the sestrin2 promoter in U2OS cells; type: cell-based, human; conditions: 8 μM, 8 hr
Method: Chromatin immunoprecipitation experiments are performed to test if p53 and histone Arg modifications directly regulate Sesn2 gene promoter. ChIP experiments were carried out essentially as described in Li, P. et al., Mol. Cell Biol., 28 (15), 4745-4758 (2008). Antibodies used in ChIP were: anti-p53 (Sigma), anti-PAD4, anti-H3Cit (Abeam), anti-H3R17Me (Abeam). Multiple pairs of primers spanning different regions of Sesn2 are designed to identify a p53 binding site at the Sesn2 gene. p53 binding is relatively […] at the +733 position in untreated U2OS cells, while its binding to this site is dramatically elevated after DNA damage induced by UV irradiation. After 8 hr YW3-56 treatment, p53 binding at the +733 position of Sesn2 is increased >4-fold with a concomitant increase of histone H3 Arg17 methylation (H3R17Me) (FIG. 14G, upper panel). In contrast, after YW3-56 treatment, a decrease in PAD4 binding and histone H3 citrullination (H3Cit) at the +733 position is consistently detected. ChIP results support a model in which p53 associates with while PAD4 dissociates from the Sesn2 promoter after YW3-56 treatment, allowing a decrease in H3Cit and an increase in H3R17Me to facilitate Sesn2 expression.
FIG. 14G, ChIP analyses of p53 and PAD4 association as well as histone H3R17Me and H3Cit modifications at the sestrin2 promoter before and after YW3-56 treatment at 8 μM for 8 hr. […]

For `CN(C)c1ccc2cc(C(=O)N[C@@H](CCCNC(=N)CCl)C(=O)NCc3ccccc3)ccc2c1` [YW3-56], the “U2OS cell growth in MTT assay” value ([1]; 20 μM, 3 days) was “abolished cell growth”, the IC50 ([1]; Homo sapiens, read-out: 50% inhibition Cell growth, U2OS cells, MTT, 72 hr) was about 2.5 µM and the “DRAM mRNA” value (p53 and its target genes; U2OS cells) was “not altered”. For the same molecule, the p70S6K phosphorylation (p53 and its target genes; U2OS cells with or without p53 depletion) was “inhibited”, the “sestrin1 and 2 mRNA and Sestrin2 protein levels” value (p53 and its target genes; U2OS cells, concentration dependent) was “significantly increased” and the “growth of S180 tumor relative to control group” value (S180 tumor) was about 51.5%. For the same molecule, the “PAD4 binding and histone H3 citrullination (H3Cit) at the +733 position” value [2] was “decrease” and the “p53 binding at the +733 position of Sesn2, increase” value [2] was over 4 fold.
